Assay results published in patent US7569547B2, “Inhibiting furin with polybasic peptides” (Board of Supervisors of Louisiana State University and …, priority 2001, dated 2009).

Assays:
[1] = tested on: Pseudomonas exotoxin A (PEA) in HEK293 cells; test: Protection of HEK293 cells from death caused by Pseudomonas exotoxin A (WST); assay type: cell-based, human
Excerpt: Pseudomonas exotoxin A (PEA) must be cleaved by furin at the cell surface to gain entry into a cell, which typically causes cell death. […] We inferred that the D6R blocked the cleavage of PEA by furin, thus preventing its activation.

PC2 = target: T1, PC2 (Mus musculus, UniProt P21661)
T1 sequence (P21661 109-637): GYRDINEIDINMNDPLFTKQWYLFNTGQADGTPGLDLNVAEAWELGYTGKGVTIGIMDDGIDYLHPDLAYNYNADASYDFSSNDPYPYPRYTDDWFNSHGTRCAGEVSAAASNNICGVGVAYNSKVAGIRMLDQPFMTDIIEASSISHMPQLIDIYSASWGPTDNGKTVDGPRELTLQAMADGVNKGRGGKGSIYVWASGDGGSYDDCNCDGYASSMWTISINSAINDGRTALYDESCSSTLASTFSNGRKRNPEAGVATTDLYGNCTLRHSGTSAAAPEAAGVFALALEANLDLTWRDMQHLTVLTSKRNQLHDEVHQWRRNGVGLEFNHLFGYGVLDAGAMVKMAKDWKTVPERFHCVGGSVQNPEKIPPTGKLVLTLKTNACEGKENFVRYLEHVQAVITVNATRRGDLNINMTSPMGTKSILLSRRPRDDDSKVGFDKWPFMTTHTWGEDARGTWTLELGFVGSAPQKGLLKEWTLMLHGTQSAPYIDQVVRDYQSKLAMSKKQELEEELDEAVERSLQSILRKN

Compound | amount of WST (absorbance) ([1]; HEK293, 1 μM D6R + 10 ng/mL PEA, 51 hours) | amount of WST (absorbance) ([1]; HEK293, 1 μM D6R + 10 ng/mL PEA, 76 hours) | amount of WST (absorbance) ([1]; HEK293, 1 μM D6R + 10 ng/mL PEA, 86 hours) | amount of WST (absorbance) ([1]; HEK293, 1 μM D6R + 10 ng/mL PEA, 96 hours) | amount of WST (absorbance) ([1]; HEK293, 10 μM D6R + 10 ng/mL PEA, 51 hours) | amount of WST (absorbance) ([1]; HEK293, 10 μM D6R + 10 ng/mL PEA, 76 hours) | amount of WST (absorbance) ([1]; HEK293, 10 μM D6R + 10 ng/mL PEA, 86 hours) | amount of WST (absorbance) ([1]; HEK293, 10 μM D6R + 10 ng/mL PEA, 96 hours) | amount of WST (absorbance) ([1]; HEK293, 100 μM D6R + 10 ng/mL PEA, 51 hours) | amount of WST (absorbance) ([1]; HEK293, 100 μM D6R + 10 ng/mL PEA, 76 hours) | amount of WST (absorbance) ([1]; HEK293, 100 μM D6R + 10 ng/mL PEA, 86 hours) | amount of WST (absorbance) ([1]; HEK293, 100 μM D6R + 10 ng/mL PEA, 96 hours) | effect on cell death caused by PEA ([1]; HEK293 cells, 10 ng/mL PEA, 1 μM final concentration) | protection of cells from killing by exotoxin ([1]; preliminary data, summary statement) | cleavage by PC2 (PC2)
N=C(N)NCCC[C@@H](NC(=O)[C@H](N)CCCN=C(N)N)C(=O)N[C@H](CCCNC(=N)N)C(=O)N[C@H](CCCNC(=N)N)C(=O)N[C@H](CCCNC(=N)N)C(=O)N[C@H](CCCN=C(N)N)C(=O)O [Hexa-D-arginine] | 0.52 ± 0.04 | 0.85 ± 0.02 | 0.83 ± 0.02 | 0.56 ± 0.04 | 0.54 ± 0.07 | 0.73 ± 0.05 | 0.71 ± 0.02 | 0.67 ± 0.01 | 0.51 ± 0.04 | 0.78 ± 0.03 | 0.61 ± 0.06 | 0.55 ± 0.02 | reduced the cell death caused by PEA | able to protect cells from killing | 
N=C(N)NCCC[C@H](NC(=O)[C@H](CCCNC(=N)N)NC(=O)[C@H](CCCNC(=N)N)NC(=O)[C@H](CCCNC(=N)N)NC(=O)[C@H](CCCNC(=N)N)NC(=O)[C@H](CCCNC(=N)N)NC(=O)[C@H](CCCNC(=N)N)NC(=O)[C@H](CCCNC(=N)N)NC(=O)[C@@H](N)CCCNC(=N)N)C(=O)O [Nona-L-arginine] |  |  |  |  |  |  |  |  |  |  |  |  |  |  | essentially no cleavage
